Source: PubChem BioAssay (NCI)
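Tested at 5 concentrations; 48 h exposure; 96-well plates; endpoints linearly interpolated, else capped at highest concentration. GI50 marks 50% less growth. Definition used: TGI = concentration required for complete inhibition of growth.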

Legend:
Experiment in all cases: inhibition of tumour cell growth, NCI panel, 48 h
[1] = test system: 786-0 renal
[2] = test system: HL-60(TB) leukemia
[3] = test system: NCI/ADR-RES ovarian
[4] = test system: SNB-75 CNS
[5] = test system: LOX IMVI melanoma
[6] = test system: BT-549 breast
[7] = test system: SK-MEL-28 melanoma
[8] = test system: K-562 leukemia
[9] = test system: UO-31 renal
[10] = test system: TK-10 renal

## CCN(CC)c1ccc2cc(C(=O)Nc3ccccn3)c(=N)oc2c1
[1]
  TGI: > 100 µM
[2]
  TGI: > 100 µM
[3]
  TGI: > 100 µM
[4]
  TGI: > 100 µM
[5]
  TGI: > 100 µM
[6]
  TGI: > 100 µM
[7]
  TGI: > 100 µM
[8]
  TGI: > 100 µM

## CC1(C)CC(=O)C2=C(C1)OC1=C(CC(C)(C)CC1=O)C2c1ccccc1[N+](=O)[O-] (configuration not stated)
[1]
  TGI: > 100 µM
[2]
  TGI: > 100 µM
[9]
  TGI: 3.69 µM
[3]
  TGI: > 100 µM
[4]
  TGI: > 100 µM
[5]
  TGI: > 100 µM
[10]
  TGI: > 100 µM
[7]
  TGI: > 100 µM
[8]
  TGI: > 100 µM

## C[C@@H]1S[C@H](c2c(Cl)cccc2Cl)N2Cc3ccccc3N=C12
[1]
  TGI: > 100 µM
[2]
  TGI: > 100 µM
[9]
  TGI: > 100 µM
[4]
  TGI: > 100 µM
[5]
  TGI: > 100 µM
[6]
  TGI: > 100 µM
[10]
  TGI: > 100 µM
[7]
  TGI: > 100 µM
[8]
  TGI: > 100 µM

## O=C1C(CN2CCOCC2)CCCC1CN1CCOCC1 (configuration not stated)
[1]
  TGI: 2.61 µM
[2]
  TGI: 1.78 µM
[9]
  TGI: 18.9 µM
[4]
  TGI: 29.9 µM
[5]
  TGI: 8.98 µM
[6]
  TGI: 3.5 µM
[10]
  TGI: 8.72 µM
[7]
  TGI: 3.83 µM
[8]
  TGI: 6.84 µM

## COC(=O)c1ccc(Nc2nc3nc[nH]c3c(=O)[nH]2)cc1
[1]
  TGI: > 100 µM
[2]
  TGI: > 100 µM
[3]
  TGI: > 100 µM
[4]
  TGI: > 100 µM
[5]
  TGI: > 100 µM
[6]
  TGI: > 100 µM
[10]
  TGI: > 100 µM
[7]
  TGI: > 100 µM

## O=C1c2cn[nH]c2C(c2ccccc2)N1c1ccccc1 (configuration not stated)
[1]
  TGI: > 10 µM
[2]
  TGI: > 10 µM
[9]
  TGI: > 10 µM
[3]
  TGI: > 10 µM
[4]
  TGI: > 10 µM
[5]
  TGI: > 10 µM
[6]
  TGI: > 10 µM
[10]
  TGI: > 10 µM
[7]
  TGI: > 10 µM

## O=C(NNc1nc(-c2ccccc2)cs1)C(F)(F)F
[1]
  TGI: > 100 µM
[2]
  TGI: > 100 µM
[9]
  TGI: 31.6 µM
[3]
  TGI: > 100 µM
[4]
  TGI: 91 µM
[5]
  TGI: > 100 µM
[7]
  TGI: 88.8 µM
[8]
  TGI: 93.5 µM

## CCCC(CCN)(CCN)[N+](=O)[O-]
[1]
  TGI: > 100 µM
[2]
  TGI: > 100 µM
[9]
  TGI: > 100 µM
[3]
  TGI: > 100 µM
[4]
  TGI: > 100 µM
[6]
  TGI: > 100 µM
[10]
  TGI: > 100 µM
[8]
  TGI: > 100 µM

## CC(=O)N1CCn2c1nc1cc(Cl)ccc12
[1]
  TGI: > 100 µM
[2]
  TGI: > 100 µM
[3]
  TGI: > 100 µM
[5]
  TGI: > 100 µM
[6]
  TGI: > 100 µM
[10]
  TGI: > 100 µM
[7]
  TGI: > 100 µM
[8]
  TGI: > 100 µM

## CCOC(=O)C1=C(C)N(c2ccc(OC)cc2)C2(O)C=CC(=O)C3=C(O)c4ccccc4C(=O)C312 (configuration not stated)
[2]
  TGI: 21.6 µM
[9]
  TGI: 31 µM
[3]
  TGI: 20.1 µM
[5]
  TGI: 22.4 µM
[6]
  TGI: 29 µM
[10]
  TGI: 27.4 µM
[8]
  TGI: 39.5 µM

## COc1ccc(C(OCC2OC(n3ccc(NC(=O)c4ccccc4)nc3=O)CC2OP2(=S)SCCS2)(c2ccccc2)c2ccc(OC)cc2)cc1 (configuration not stated)
[1]
  TGI: 82 µM
[9]
  TGI: > 100 µM
[3]
  TGI: > 10 µM
[4]
  TGI: 46.6 µM
[5]
  TGI: 33.1 µM
[6]
  TGI: 53.6 µM
[10]
  TGI: > 100 µM
[7]
  TGI: 90.3 µM
[8]
  TGI: > 100 µM

## CC(=O)N(O)c1ccc(-c2nc3ccccc3s2)cc1
[1]
  TGI: > 100 µM
[9]
  TGI: > 100 µM
[3]
  TGI: > 100 µM
[4]
  TGI: > 100 µM
[5]
  TGI: > 100 µM
[10]
  TGI: > 100 µM
[7]
  TGI: > 100 µM
[8]
  TGI: > 100 µM

## N#C/C(=C/NC(=S)c1ccncc1)C(N)=O
[1]
  TGI: > 100 µM
[2]
  TGI: > 100 µM
[9]
  TGI: > 100 µM
[3]
  TGI: > 100 µM
[4]
  TGI: > 100 µM
[5]
  TGI: > 100 µM
[6]
  TGI: > 100 µM
[10]
  TGI: > 100 µM
[7]
  TGI: > 100 µM

## CN(C)/N=C1\CC(c2ccccc2)C(C#N)(C#N)C1(C#N)C#N (configuration not stated)
[1]
  TGI: 42.3 µM
[2]
  TGI: > 100 µM
[9]
  TGI: 34.4 µM
[3]
  TGI: 72.1 µM
[4]
  TGI: 33.9 µM
[5]
  TGI: 79.2 µM
[10]
  TGI: 32.4 µM
[7]
  TGI: 46 µM
[8]
  TGI: > 100 µM

## COc1cc(C2c3cc4c(cc3OC(NCCO)C2C)OCO4)cc(OC)c1OC (configuration not stated)
[1]
  TGI: > 100 µM
[9]
  TGI: > 76.4 µM
[3]
  TGI: > 100 µM
[4]
  TGI: > 71.7 µM
[5]
  TGI: > 100 µM
[6]
  TGI: > 100 µM
[10]
  TGI: > 96.3 µM
[7]
  TGI: > 100 µM

## CC1C(c2ccc(Cl)cc2)c2cc3c(cc2OC1N1CCOCC1)OCO3 (configuration not stated)
[1]
  TGI: > 100 µM
[9]
  TGI: > 100 µM
[3]
  TGI: > 100 µM
[4]
  TGI: > 100 µM
[5]
  TGI: > 100 µM
[10]
  TGI: > 100 µM
[7]
  TGI: > 100 µM
[8]
  TGI: > 100 µM

## C=CCOCn1cc(C)c(=O)[nH]c1=O
[1]
  TGI: > 100 µM
[2]
  TGI: > 100 µM
[9]
  TGI: > 100 µM
[4]
  TGI: > 100 µM
[5]
  TGI: > 100 µM
[6]
  TGI: > 100 µM
[10]
  TGI: > 100 µM
[7]
  TGI: > 100 µM
[8]
  TGI: > 100 µM

## Clc1ccc(OCc2nn3c(CCc4nnc5sc(COc6ccc(Cl)cc6)nn45)nnc3s2)cc1
[1]
  TGI: > 100 µM
[2]
  TGI: 72 µM
[9]
  TGI: 3.03 µM
[3]
  TGI: 37.5 µM
[5]
  TGI: > 100 µM
[10]
  TGI: 80.7 µM
[7]
  TGI: > 100 µM
[8]
  TGI: > 100 µM

## COc1ccc2c(OCc3nnc4ccc(-c5ccccc5)nn34)ccnc2c1
[2]
  GI50: > 100 µM
  TGI: > 100 µM
[3]
  GI50: > 100 µM
  TGI: > 100 µM
[4]
  GI50: > 100 µM
  TGI: > 100 µM
[5]
  GI50: > 100 µM
  TGI: > 100 µM
[6]
  GI50: > 100 µM
  TGI: > 100 µM
[10]
  GI50: > 100 µM
  TGI: > 100 µM
[7]
  GI50: > 100 µM
  TGI: > 100 µM
[8]
  GI50: > 100 µM
  TGI: > 100 µM

## COc1cc(C2c3cc4c(cc3OC(N3CCNCC3)C2C)OCO4)cc(OC)c1OC (configuration not stated)
[1]
  TGI: 15.7 µM
[2]
  TGI: 0.929 µM
[9]
  TGI: 15.6 µM
[5]
  TGI: 19 µM
[6]
  TGI: 30.2 µM
[10]
  TGI: > 100 µM
[7]
  TGI: 38.6 µM
[8]
  TGI: 10.9 µM

## CC1=NC(=Cc2ccc([N+](=O)[O-])cc2)C(=O)N1n1c(-c2ccccc2)nc2ccccc2c1=O
[1]
  TGI: > 100 µM
[2]
  TGI: 88.4 µM
[9]
  TGI: > 100 µM
[4]
  TGI: > 100 µM
[5]
  TGI: > 100 µM
[6]
  TGI: > 100 µM
[10]
  TGI: > 100 µM
[7]
  TGI: > 100 µM
[8]
  TGI: > 100 µM

## COc1cc(-c2ccccc2N)c2cccnc2c1OC
[1]
  TGI: 14.9 µM
[2]
  TGI: 16.5 µM
[9]
  TGI: 15 µM
[3]
  TGI: 35.9 µM
[5]
  TGI: 15.3 µM
[6]
  TGI: 22.2 µM
[10]
  TGI: 23.7 µM
[7]
  TGI: 32.8 µM
[8]
  TGI: 20.5 µM

## C[Si](C)(c1ccccc1)[C@H]1CCCC=C1CCNC1c2ccccc2CCc2ccccc21
[1]
  TGI: > 100 µM
[9]
  TGI: > 100 µM
[3]
  TGI: > 100 µM
[4]
  TGI: > 100 µM
[5]
  TGI: > 100 µM
[6]
  TGI: > 100 µM
[10]
  TGI: > 100 µM
[7]
  TGI: > 100 µM
[8]
  TGI: > 100 µM
